From patent US5401733A, “Stable and active metabolites of 1,25-dihydroxy-16-ene-cholecalciferol” (Hoffmann-La Roche Inc., priority 1993, dated 1995)
“Also recorded” adds a separate entry of the source. Where two headings read alike, the source gives them in different places.

Tests used:
[1] = test system: human keratinocytes; assay: Keratinocyte proliferation, assay 1 (KGM supplemented to 1.5 mM CaCl2, 5 days); format: cell-based; details: for inhibition at 0.03 µM / inhibition at 0.1 µM / inhibition at 0.3 µM / inhibition at 1 µM: Homo sapiens, Keratinocyte; for inhibition at 0.03 µM: assay 1, 0.03 μM; for inhibition at 0.1 µM: assay 1, 0.1 μM; for inhibition at 0.3 µM: assay 1, 0.3 μM; for inhibition at 1 µM: assay 1, 1.0 μM; for antiproliferative activity, assay 1 (in words): assay 1, lower doses
Procedure: (§1) Quantitation of Morphological Changes During Keratinocyte Proliferation Materials and Methods
(§2) Human neonatal foreskins were collected by circumcision and placed into tubes containing Dulbecco's Modified Eagle's Medium (DMEM) with 10% serum. On arrival at the laboratory, they were mechanically trimmed of excess dermis, and treated with a solution of trypsin/EDTA (0.05%/0.02%) at 4° C. overnight. The epidermis was stripped from the dermis, agitated in buffered saline containing soybean trypsin inhibitor to remove basal keratinocytes and the stratum cornea layer was removed. The separated cells were centrifuged, resuspended in the above media, counted, and the cells plated onto plastic culture dishes or plates at a density of 25,000 cells/cm^2 in keratinocyte growth media (KGM®-modified MCDB 153, Clonetics, Inc., Catalog #CC3001) according to protocols developed by Boyce and Ham (In Vitro Models for Cancer Research III, 246-274, 1986) for MCDB 153 media. The cultures were incubated in humidified chambers with 5% CO2 at 37° C. The cultures were refed with fresh media two to three times per week. Prior to reaching confluency the cells were replated (passage one) at 25,000 cells/well on 6-well cluster plates (Costar catalog #3506) in KGM.
(§3) 1 milligram quantities were received in amber glass vials, and stored at -20° C. Sufficient 100% ethanol was added directly to the vials to obtain a millimolar solution that was subsequently aliquoted into small amber vials, overlayed with argon gas and stored at […] Each stock solution was thawed once, used and discarded. Aliquots from the stock solutions were diluted directly into medium and then serially diluted from micromolar to 10^-12 M concentrations. Dilutions from 10^-8 M to 10^-12 M had ethanol added for a final concentration of 0.1%. Stock solutions were used within one month. Control cultures were treated with 0.1% ethanol.
(§4) Approximately 24 hours after passage one, the cells were refed with fresh KGM supplemented to 1.5 mM CaCl2 (assay 1) containing the test compound. In a second assay (assay 2), the cells were grown in KGM without calcium supplementation to stimulate more proliferation and grown for 7 days instead of 5 days. Compounds were typically tested at 4 concentrations in triplicate wells. At the termination of the experiment, prior to the cultures reaching confluency, the cells were enumerated as follows. Dishes were rinsed with phosphate buffered saline, and then incubated with trysin/EDTA solution for 15 minutes. Cells were suspended, an aliquot placed into isotonic buffered saline and counted on an electronic particle counter (Coulter Counter). The counter was periodically calibrated for the correct size of keratinocytes. Each well was counted in triplicate. The number of cells per dish were calculated according to dilution factors used and results shown below in Table 3 are presented as percent inhibition obtained in control cultures.

[2] = test system: hydroxylase enzymes; assay: Metabolism in perfused rat kidneys; format: in vitro ADME; details: for resistance to further hydroxylation (in words): rat kidney perfusion
Procedure: The compounds of formulas I and II were prepared by perfusing 1,25(OH)2 -16-ene-D3 in rat kidneys, extracting the perfusate and isolating the compounds of formulas I and II.
Crystalline 1,25(OH)2 -16-ene-D3 was synthesized as described in U.S. Pat. No. 5,087,619, which is herein incorporated by reference to the extent necessary to enable one of skill in the art to make this invention. Rat kidneys were perfused with the 1,25(OH)2 -16-ene-D3 as described in Am. J. Physiol. 1982, 243 E265-271 and in Biochemistry 1987, 26, 324-331. Cold 1,25(OH)2 -16-ene-D3 (400 nmoles) was introduced into 100 mL of perfusate and the kidney perfusion was continued for 8 hours. Lipid extraction of the final kidney perfusate was performed according to the procedure described in Can. J. Biochem. Physiol. 1959, 37, 911-917. Half of the bulk lipid extract from the final perfusate of about 100 mL was then subjected directly to high pressure liquid chromatography (HPLC) performed with a Waters Model 600 equipped with a Model 990 photo diode array detector (Waters Associates, Milford, MA). HPLC analysis was performed on the lipid extract obtained from 50 mL of perfusate under the following conditions: Zorbax-SIL column (25 cm×4.6 mm); Hexane: 2-propanol (90:10), Flow rate: 2 mL/minutes. A known amount of 25(S),26(OH)2 -D3 was added to the perfusate at the time of lipid extraction to assess extraction of vitamin D metabolites in general. Fractions of each individual metabolite from the first HPLC run was pooled and subjected to a second HPLC run using the same Zorbax-SIL column eluted with methylene chloride:2-propanol […]. Each metablite obtained from the second HPLC run was chromatographed twice using the first HPLC system. At this time, the purity of each metabolite was adequate for its structure identification process. A control perfusion was performed with cold 1,25(OH)2 -D3 in a similar fashion and the lipid extract of the final perfusate was analyzed using the same HPLC systems as above.

[3] = test system: human keratinocytes; assay: Keratinocyte proliferation, assay 2 (KGM without calcium supplementation, 7 days); format: cell-based; details: for inhibition at 0.03 µM / inhibition at 0.1 µM / inhibition at 0.3 µM / inhibition at 1 µM: Homo sapiens, Keratinocyte, Exp. 1, read-out: Percentage Inhibition of Controls, Exp. 1; for inhibition at 0.03 µM: assay 2, 0.03 μM; for inhibition at 0.1 µM: assay 2, 0.1 μM; for inhibition at 0.3 µM: assay 2, 0.3 μM; for inhibition at 1 µM: assay 2, 1.0 μM; for antiproliferative activity, assay 2 (in words): assay 2, lower doses; for proliferation of human keratinocytes / skin cells (in words): assays 1 and 2 not distinguished; for dose response (in words): low calcium and more rapidly dividing cells
Procedure: as §1, §2, §3, §4

[4] = test system: HL-60 cells; assay: Differentiation of HL-60 cells (NBT reduction), 4 days; format: cell-based, human; details: for Percentage of NBT positive cells, Exp. 1 / Percentage of NBT positive cells, Exp. 2 / Percentage of NBT positive cells, Average / EC50: 4 days; for Percentage of NBT positive cells, Average: average of Exp. 1 and 2; for EC50: Homo sapiens, HL-60, 96 h, NBT reduction, read-out: ED50 (concentration of compound which induced differentiation of 50% of the cells)
Procedure: Effect of 1,25(OH)2 -16-ene-24-oxo-D3 on the Morphological Differentiation of HL-60 Cells
Tissue culture medium used was RPMI-1640 (Gibco) supplemented with glutamine, antibiotics and 20% fetal bovine serum.
1,25(OH)2 -16-ene-D3 and 1,25(OH)2 -16-ene-24-oxo-D3 were dissolved in sufficient ethanol to yield stock solutions of 1 mM. Reduced lighting was used when working with the compounds and the stock solutions were stored in the dark at -20 C. in an argon atmosphere. The stock solutions were added to flasks, which were supplemented with sufficient ethanol to achieve the final concentration of 0.1%.
A HL-60 tumor cell line was originally derived from a patient with promyelocytic leukemia and was obtained from the American Type Culture Collection (ATCC #CCL240). The cells were maintained in liquid cultures by serial passage twice weekly in the tissue culture medium. For each experimental point, cells were grown in replicate flasks. The cells were seeded at a rate of 10^6 cells per 25 cm^2 flask and grown in the presence of the compounds for a total of 4 days. Ethanol, used as the vehicle, was kept constant in all dilutions in each experiment and had no effect on the cell differentiation at the concentrations used […]. After 4 days of incubation at 37° C., cultures were evaluated for cell differentiation.
Quantitation of differentiated cells was done by the biochemical method of nitroblue tetrazolium reduction (NBT) reduction. A 1 ml aliquot of cell suspension was removed from each flask and centrifuged for 10 minutes, and resuspended in about 200 μl of a work solution. The work solution contained 100 ng of tetradecanoyl phorbol acetate per ml of NBT and was kept in a covered vial on ice. The NBT was prepared fresh on the day of enumeration to 1 mg/ml in growth medium. The cells were incubated in a 37° C. water bath for 30 minutes. An aliquot was placed into a hemocytometer and the total number of blue-black cells per approximately 200 cells was determined. The percentage of differentiated cells was then calculated.
The results are also shown as the concentration of compound which induced differentiation of 50% of the cells (ED50).

[5] = Exp. 2, read-out: Percentage Inhibition of Controls, Exp. 2
[6] = average of Exp. 1 and 2, read-out: Percentage Inhibition of Controls, Average

Compound | inhibition at 0.03 µM [1, 5] [%] | inhibition at 0.03 µM [1, 6] [%] | inhibition at 0.1 µM [1, 5] [%] | inhibition at 0.1 µM [1, 6] [%] | inhibition at 0.3 µM [1, 5] [%] | inhibition at 0.3 µM [1, 6] [%] | inhibition at 1 µM [1, 5] [%] | inhibition at 1 µM [1, 6] [%] | antiproliferative activity, assay 1 (in words) [1] | resistance to further hydroxylation (in words) [2] | inhibition at 0.03 µM [3] [%] | inhibition at 0.1 µM [3] [%] | inhibition at 0.3 µM [3] [%] | inhibition at 1 µM [3] [%] | antiproliferative activity, assay 2 (in words) [3] | proliferation of human keratinocytes / skin cells (in words) [3] | dose response (in words) [3] | differentiation of HL-60 / human promyelocytic cells (in words) [4] | Percentage of NBT positive cells, Exp. 1 ([4]; 0.001 μM) [%] | Percentage of NBT positive cells, Exp. 2 ([4]; 0.001 μM) [%] | also measured
C=C1/C(=C\C=C2/CCC[C@]3(C)C([C@H](C)CCC(=O)C(C)(C)O)=CC[C@@H]23)C[C@@H](O)C[C@@H]1O [1,25(OH)2-16-ene-24-oxo-D3, 1,25-dihydroxy-16-ene-24-oxo-cholecalciferol] | 82.8 | 80.1 | 108 | 89.1 | 73.3 | 67.8 | 73.1 | 68.1 | some antiproliferative activity at lower doses, although this activity is not dose dependent | resisted further hydroxylation from other hydroxylase enzymes | 63 ± 7.21 | 45.3 ± 9.48 | 31.1 ± 11.8 | 17.4 ± 8.13 | strong antiproliferative activity at lower doses | restrained the proliferation of skin cells | good dose response curve | induced differentiation of human promyelocytic cells; also recorded: stimulates differentiation of HL-60 cells | 8.0 | 24.5 | proliferation of human keratinocytes / skin cells (in words) ([3]; listed as I): decrease proliferation of human keratinocytes; Percentage of NBT positive cells, Average ([4]; 0.001 μM): 16.25%; Percentage of NBT positive cells, Exp. 1 ([4]; 0.01 μM): 47.0%; Percentage of NBT positive cells, Exp. 2 ([4]; 0.01 μM): 35.5%; Percentage of NBT positive cells, Average ([4]; 0.01 μM): 41.25%; Percentage of NBT positive cells, Exp. 1 ([4]; 0.1 μM): 55.0%; Percentage of NBT positive cells, Exp. 2 ([4]; 0.1 μM): 60.0%; Percentage of NBT positive cells, Average ([4]; 0.1 μM): 57.5%; Percentage of NBT positive cells, Exp. 1 ([4]; 1.0 μM): 69.0%; Percentage of NBT positive cells, Exp. 2 ([4]; 1.0 μM): 70.0%; Percentage of NBT positive cells, Average ([4]; 1.0 μM): 69.5%; EC50 [4]: 35 nM; differentiation of HL-60 / human promyelocytic cells (in words) ([4]; listed as I): stimulate differentiation of HL-60 cells; potency relative to the parent compound (in words) ([4]; versus 1,25(OH)2 -16-ene-D3): greater than that of the parent compound
C=C1/C(=C\C=C2/CCC[C@]3(C)C([C@H](C)CCCC(C)(C)O)=CC[C@@H]23)C[C@@H](O)C[C@@H]1O [1,25(OH)2-16-ene-D3, 1,25-dihydroxy-16-ene-cholecalciferol] | 88.4 | 89.8 | 83.6 | 82.3 | 89 | 84.5 | 57.1 | 58.5 | some antiproliferative activity at lower doses, although this activity is not dose dependent | – | 75.6 ± 3.35 | 56.2 ± 5.7 | 36 ± 10.3 | 22.4 ± 8.55 | strong antiproliferative activity at lower doses | – | good dose response curve | – | 12.0 | 18.5 | metabolism (in words) ([2]; 400 nmoles in 100 mL perfusate, 8 hours): metabolized mainly into two metabolites; Percentage of NBT positive cells, Average ([4]; 0.001 μM): 15.25%; Percentage of NBT positive cells, Exp. 1 ([4]; 0.01 μM): 30.5%; Percentage of NBT positive cells, Exp. 2 ([4]; 0.01 μM): 47.5%; Percentage of NBT positive cells, Average ([4]; 0.01 μM): 39.0%; Percentage of NBT positive cells, Exp. 1 ([4]; 0.1 μM): 48.0%; Percentage of NBT positive cells, Exp. 2 ([4]; 0.1 μM): 61.0%; Percentage of NBT positive cells, Average ([4]; 0.1 μM): 54.5%; Percentage of NBT positive cells, Exp. 1 ([4]; 1.0 μM): 62.5%; Percentage of NBT positive cells, Exp. 2 ([4]; 1.0 μM): 60.5%; Percentage of NBT positive cells, Average ([4]; 1.0 μM): 61.5%; EC50 [4]: 80 nM
C=C1/C(=C\C=C2/CCC[C@]3(C)C([C@H](C)CCC(O)C(C)(C)O)=CC[C@@H]23)C[C@@H](O)C[C@@H]1O (stereo partly drawn) [1,24,25(OH)3-16-ene-D3, 1,24,25-trihydroxy-16-ene-cholecalciferol] | – | – | – | – | – | – | – | – | – | resisted further hydroxylation from other hydroxylase enzymes | – | – | – | – | – | decrease proliferation of human keratinocytes | – | stimulate differentiation of HL-60 cells | – | – | –
